Experimental data taken from ChEMBL document CHEMBL1133382, “Probing the extended binding determinants of oligosaccharyl transferase with synthetic inhibitors of asparagine-linked glycosylation” (Bioorg Med Chem Lett, 2000).
pKi: −log10 of the molar value. Starred links: 1 amine or outer side, 2 acyl side, 3 side chain; linkers in the order of their positions; H or OH if unused. Positions of bridges follow the written chain, without caps; N, C: chain ends. Non-standard residues stand in square brackets, D forms with d. Residues, ends and D or L forms follow the SMILES beside them. *: point of attachment. Phe(4-NO2) = N[C@@H](Cc1ccc([N+](=O)[O-])cc1)C(=O)O; X1 = O=C(CCCCC[*:2])[*:1]; Dab = NCC[C@H](N)C(=O)O; X3 = c1ccc2cc(*)ccc2c1

Biological target: T1, Dolichyl-diphosphooligosaccharide--protein glycosyltransferase 48 kDa subunit (UniProt P39656)
T1 sequence (P39656 whole entry): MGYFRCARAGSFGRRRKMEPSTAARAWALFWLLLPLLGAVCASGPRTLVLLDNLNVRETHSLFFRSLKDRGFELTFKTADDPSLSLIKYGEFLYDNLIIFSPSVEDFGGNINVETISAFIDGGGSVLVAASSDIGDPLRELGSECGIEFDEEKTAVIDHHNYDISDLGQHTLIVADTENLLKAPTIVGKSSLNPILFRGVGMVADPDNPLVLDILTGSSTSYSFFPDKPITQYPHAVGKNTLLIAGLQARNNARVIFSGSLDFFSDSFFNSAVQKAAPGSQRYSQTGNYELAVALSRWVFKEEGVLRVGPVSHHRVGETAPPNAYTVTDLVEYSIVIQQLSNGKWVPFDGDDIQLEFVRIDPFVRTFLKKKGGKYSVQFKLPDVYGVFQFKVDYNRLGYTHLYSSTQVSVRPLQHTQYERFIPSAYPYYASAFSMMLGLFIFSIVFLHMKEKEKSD
Assay: Inhibition of asparagine-linked glycosylation by oligosaccharyl transferase
Set-up: species or system Saccharomyces cerevisiae

Compound	pKi
CC(C)[C@H](NC(=O)[C@@H](NC(=O)[C@@H]1CSCCCCCC(=O)N[C@@H](CCN)C(=O)N1)[C@@H](C)O)C(=O)N[C@H](C(=O)NCCc1ccccc1)[C@@H](C)O	7.36
COc1ccc(CNCCC[C@H](NCc2ccccc2)C(=O)NCC(=O)N[C@H](C(=O)N[C@H](C(=O)N[C@H](C(N)=O)[C@@H](C)O)C(C)C)[C@@H](C)O)cc1 (HELM PEPTIDE1{[COc1ccc(CNCCC[C@H](NCc2ccccc2)C(=O)[*:2])cc1].G.T.V.T.[am]}$$$$V2.0)	6.52
CC(C)[C@H](NC(=O)[C@@H](NC(=O)CNC(=O)[C@H](CCCNCc1ccc([N+](=O)[O-])cc1)NCc1ccccc1)[C@@H](C)O)C(=O)N[C@H](C(N)=O)[C@@H](C)O (HELM PEPTIDE1{[O=C([C@H](CCCNCc1ccc([N+](=O)[O-])cc1)NCc1ccccc1)[*:2]].G.T.V.T.[am]}$$$$V2.0)	6.81
CC(C)[C@H](NC(=O)[C@@H](NC(=O)[C@@H]1CSCCCCCC(=O)N[C@@H](CCNc2ccc3ccccc3c2)C(=O)N1)[C@@H](C)O)C(=O)N[C@H](C(=O)N[C@@H](Cc1ccc([N+](=O)[O-])cc1)C(N)=O)[C@@H](C)O ([Dab](X3)CTVT[Phe(4-NO2)]-NH2; linker N-2 via X1)	7.40
CCCCCCCCCCNCC[C@@H]1NC(=O)CCCCCSC[C@@H](C(=O)N[C@H](C(=O)N[C@H](C(=O)N[C@H](C(=O)N[C@@H](Cc2ccc([N+](=O)[O-])cc2)C(N)=O)[C@@H](C)O)C(C)C)[C@@H](C)O)NC1=O	7.21
CC(C)[C@H](NC(=O)[C@@H](NC(=O)[C@@H]1CSCCCCCC(=O)N[C@@H](CCN)C(=O)N1)[C@@H](C)O)C(=O)N[C@H](C(=O)NCCc1ccc([N+](=O)[O-])cc1)[C@@H](C)O	7.70
CC(C)[C@H](NC(=O)[C@@H](NC(=O)[C@@H]1CSCCCCCC(=O)N[C@@H](CCN)C(=O)N1)[C@@H](C)O)C(=O)N[C@H](C(=O)NCCCCc1ccccc1)[C@@H](C)O	7.30
CC(C)[C@H](NC(=O)[C@@H](NC(=O)[C@@H]1CSCCCCCC(=O)N[C@@H](CCNc2ccc3ccccc3c2)C(=O)N1)[C@@H](C)O)C(=O)N[C@H](C(=O)NCCc1ccc([N+](=O)[O-])cc1)[C@@H](C)O	8.00
CC(C)[C@H](NC(=O)[C@@H](NC(=O)[C@@H]1CSCCCCCC(=O)N[C@@H](CCN)C(=O)N1)[C@@H](C)O)C(=O)N[C@H](C(N)=O)[C@@H](C)O	7.09
CC(C)[C@H](NC(=O)[C@@H](NC(=O)CNC(=O)[C@H](CCCNCc1ccccc1)NCc1ccccc1)[C@@H](C)O)C(=O)N[C@H](C(N)=O)[C@H](C)O	< 5.30
[H][C@@](NC(=O)[C@@H]1CSCCCCCC(=O)N[C@@H](CCN)C(=O)N1)(C(=O)N[C@H](C(=O)N[C@H](C(=O)N[C@@H](Cc1ccc([N+](=O)[O-])cc1)C(N)=O)[C@@H](C)O)C(C)C)[C@@H](C)O (HELM PEPTIDE1{[Dab].C.T.V.T.[O=C([C@H](Cc1ccc([N+](=O)[O-])cc1)N[*:1])[*:2]].[am]}|CHEM1{[O=C(CCCCC[*:2])[*:1]]}$PEPTIDE1,CHEM1,1:R1-1:R1|PEPTIDE1,CHEM1,2:R3-1:R2$$$V2.0)	7.43
